Consider one compound from US12259330B2 (ARIZONA BOARD OF REGENTS ON BEHALF OF ARIZONA STATE …, priority 2021, dated 2025).

The target in the experiment is T1, PCSK9 (Homo sapiens, UniProt Q8NBP7).
T1 construct: gift from Dr. Daniel Kirchhofer, Genentech
In words: SPR measurement of PCSK9 binding to synthesized pep2-8. The conditions noted are these: synthesized peptide on streptavidin-coated gold surface, average and standard deviation over PCSK9 concentrations.

T1 sequence (Q8NBP7 153-692, species assumed): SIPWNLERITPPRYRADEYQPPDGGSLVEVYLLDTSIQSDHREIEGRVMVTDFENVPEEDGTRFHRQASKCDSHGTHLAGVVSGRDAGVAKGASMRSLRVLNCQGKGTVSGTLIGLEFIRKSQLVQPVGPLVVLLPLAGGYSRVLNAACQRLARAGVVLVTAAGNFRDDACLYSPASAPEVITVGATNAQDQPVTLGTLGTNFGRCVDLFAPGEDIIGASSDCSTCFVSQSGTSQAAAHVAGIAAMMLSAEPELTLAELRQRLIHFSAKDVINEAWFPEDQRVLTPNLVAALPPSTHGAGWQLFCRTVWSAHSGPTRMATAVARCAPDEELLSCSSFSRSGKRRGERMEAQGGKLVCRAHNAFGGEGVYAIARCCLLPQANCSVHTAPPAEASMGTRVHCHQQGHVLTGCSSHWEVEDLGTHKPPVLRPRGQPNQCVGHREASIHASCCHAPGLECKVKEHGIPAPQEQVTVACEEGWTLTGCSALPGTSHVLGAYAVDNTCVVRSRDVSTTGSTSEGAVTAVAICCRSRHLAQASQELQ
Method: The synthesized peptide was immobilized to a streptavidin-coated gold surface. Different concentrations of PCSK9 were flowed to the surface to measure the binding kinetics.
The SPR sensor chip was fabricated by coating 1.5 nm Cr and then 47 nm Au on cover glass (no. 1 VWR) using an e-beam evaporator. Prior to surface functionalization, the gold surface was cleaned with ethanol and DI water twice, dried by N2, and annealed by H2 flame. The gold chip was immersed in a mixture of 0.2 mM SH-PEG8-COOH and 0.2 mM MT(PEG)4 overnight. Then, —COOH was activated using NHS/EDC chemistry (50 mM NHS and 200 mM EDC) for 20 min and incubated with 0.1 mg/mL streptavidin in PBS for 30 min to allow immobilization. The remaining unreacted sites were quenched with 10 mM ethanolamine and the nonspecific binding sites were blocked with SuperBlock for 10 min. […] The functionalized chip was finally rinsed with PBS before the measurement.

Take `CC(=O)N[C@H](C(=O)N[C@H](C(=O)N[C@@H](Cc1ccccc1)C(=O)N[C@H](C(=O)N[C@@H](CO)C(=O)N[C@@H](Cc1c[nH]c2ccccc12)C(=O)N[C@@H](CCC(=O)O)C(=O)N[C@@H](CCC(=O)O)C(=O)N[C@@H](Cc1ccc(O)cc1)C(=O)N[C@@H](CC(C)C)C(=O)N[C@@H](CC(=O)O)C(=O)N[C@@H](Cc1c[nH]c2ccccc12)C(=O)N[C@H](C(N)=O)C(C)C)[C@@H](C)O)C(C)C)[C@@H](C)O` [pep2-8]: the kd entry is “(1.73±0.25)×10^−1 s^−1”.
